Holding throughout (experiment): growth of human tumour cells (NCI), 48 h
In assay [1] the test system is UACC-62.
The subject of assay [2] is SW-620.
Assay [3] concerns IGROV-1.
In assay [4] the test system is EKVX.
The subject of assay [5] is SNB-19.
For assay [6], the system named is COLO 205.
The test system of assay [7] is SF-295.
Assay [8] concerns K562.
In assay [9] the test system is SK-MEL-2.
In assay [10] the test system is SF-268.
In assay [11] the test system is BT-549.
The test system of assay [12] is UACC-257.
Assay [13] concerns SK-MEL-28.
Assay [14] has as its system A549.
Assay [15] relates to DU-145.
The subject of assay [16] is ACHN.
Assay [17] deals with NCI-H226.
Assay [18] concerns LOX IMVI.
In assay [19] the test system is HOP-62.
The test system of assay [20] is SR.

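Method: 48-hour compound exposure of cells in 96-well plates, five concentrations, linear interpolation of endpoints. The concentration for 50% growth inhibition is given as GI50.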 Active and inactive are the calls of the source. No stated cut-off is given here; in the data, active = GI50 up to about 1.1 µM and inactive = higher. Square brackets hold non-standard residues; d marks the D form. Peptide text beside a SMILES is read from it. * marks the point of attachment. ξ: configuration not given here. ξF = NC(Cc1ccccc1)C(=O)O; Cbz = O=C(OCc1ccccc1)*; Aib = CC(C)(N)C(=O)O Bounds are passed on as bounds.

On to `CCOC(=O)c1c2c(n(-c3ccc(OC)cc3)c1C)C(=O)C(=O)c1ccccc1-2`, for which the GI50 is 1.6 µM (inactive) in [1]; 1.24 µM (inactive) in assay [2]; 2.52 µM (inactive) in [3]; 2.01 µM (inactive) in assay [4]; 1.36 µM (inactive) in assay [5]; 2.2 µM (inactive) in assay [6]. Besides, the GI50 in assay [7] is 1.61 µM (inactive); in assay [8], 0.488 µM (active); in assay [9], 3.27 µM (inactive); in assay [10], 1.64 µM (inactive); in assay [11], 2.02 µM (inactive); in assay [12], 0.491 µM (active). Also, the GI50 in [13] was 2.12 µM (inactive); in assay [14] it was 1.51 µM (inactive); in assay [15], 1.52 µM (inactive); in assay [16] it was 1.14 µM (inactive); in [17] it was 1.75 µM (inactive); in assay [18], 0.789 µM (active). The GI50 in [19] is 1.78 µM (inactive).
As to `CN(C)CCCn1c(Cc2ccccc2)nc2cc(C(F)(F)F)ccc21`, the GI50 is 18.8 µM (inactive) in [1]; 26.1 µM (inactive) in [2]; 30.2 µM (inactive) in assay [3]; 30.1 µM (inactive) in [4]; 24.1 µM (inactive) in assay [5]; 16.1 µM (inactive) in [6]. Besides, the GI50 in assay [7] is 17.1 µM (inactive); in [8] it was 18.5 µM (inactive); in [9] it was 17.5 µM (inactive); in [10] it was 53.8 µM (inactive); in assay [11], 29.2 µM (inactive); in [12] it was 18.1 µM (inactive). For the same molecule, the GI50 is 19.1 µM (inactive) in [13]; 14.7 µM (inactive) in [14]; 67.5 µM (inactive) in assay [15]; 62.8 µM (inactive) in [16]; 40.3 µM (inactive) in [17]; 18 µM (inactive) in assay [18]. Further, in assay [19], the GI50 was 26.4 µM (inactive).
Take `C=CCN(c1cc(OC)c2[nH]c(C(=O)OCC)c(C)c2c1[N+](=O)[O-])S(C)(=O)=O`: the GI50 was 26.1 µM (inactive) in [1]; 34.3 µM (inactive) in [2]; 33.7 µM (inactive) in assay [3]; 18.5 µM (inactive) in assay [4]; 28.4 µM (inactive) in assay [5]; 15.5 µM (inactive) in assay [6]. Moreover, the GI50 is 28.5 µM (inactive) in assay [7]; 15.1 µM (inactive) in assay [8]; 25.1 µM (inactive) in [9]; 26.4 µM (inactive) in assay [10]; 22.1 µM (inactive) in assay [11]; 39.9 µM (inactive) in [12]. For the same molecule, the GI50 in assay [13] was 43.2 µM (inactive); in assay [14], 22 µM (inactive); in assay [15] it was 24.7 µM (inactive); in assay [16], 26.1 µM (inactive); in assay [17] it was 1.04 µM (active); in assay [18], 19.3 µM (inactive). Besides, the GI50 in assay [19] was 35.6 µM (inactive).
With `O=C(Nc1ccc(Cl)cc1)[C-](C(=O)c1ccc(Br)cc1)[n+]1cccc(-c2ccc(Cl)cc2)n1`, the GI50 is 3.85 µM (inactive) in assay [1]; 4.3 µM (inactive) in [2]; 2.77 µM (inactive) in [3]; 3.49 µM (inactive) in assay [4]; 8.41 µM (inactive) in [5]; 4.15 µM (inactive) in [6]. Besides, the GI50 in [7] is 2.6 µM (inactive); in assay [8], 6.3 µM (inactive); in assay [9], 3.57 µM (inactive); in [10], 4.62 µM (inactive); in assay [11] it was 2.54 µM (inactive); in assay [12], 3.88 µM (inactive). Besides, the GI50 was 8.77 µM (inactive) in [13]; 3.72 µM (inactive) in assay [14]; 5.45 µM (inactive) in [15]; 4.84 µM (inactive) in [16]; 2.27 µM (inactive) in assay [20]; 2.97 µM (inactive) in [18]. Moreover, the GI50 in assay [19] is 6.28 µM (inactive).
Turning to `Nc1ccc(C(=O)c2cn(CCN3CCOCC3)c3ccccc23)c2ccccc12`, the GI50 in assay [1] was 34 µM (inactive); in assay [2] it was 30.8 µM (inactive); in assay [3] it was 16.1 µM (inactive); in [4], 21.2 µM (inactive); in assay [5], 75 µM (inactive); in [6] it was 24.8 µM (inactive). Moreover, the GI50 in assay [7] was 33.3 µM (inactive); in assay [8] it was 17.3 µM (inactive); in [9] it was 36.6 µM (inactive); in [10], 32.6 µM (inactive); in [11], 19.1 µM (inactive); in assay [12], 45.6 µM (inactive). For the same molecule, the GI50 in [13] is 38.4 µM (inactive); in [14], 40.9 µM (inactive); in assay [15], 63 µM (inactive); in assay [16], 48.9 µM (inactive); in [20], 22.9 µM (inactive); in assay [18] it was 23.4 µM (inactive). The GI50 in [19] was 83.4 µM (inactive).
Consider `Cc1nn(-c2ccccn2)c2c1C(SC#N)=C(C=O)CC2`, for which the GI50 in assay [1] is 5.71 µM (inactive); in assay [2] it was 13.7 µM (inactive); in [3], 11.5 µM (inactive); in assay [4] it was 16.9 µM (inactive); in assay [5], 19.6 µM (inactive); in assay [6], 10.5 µM (inactive). Further, the GI50 in assay [7] was 30.3 µM (inactive); in assay [8] it was 8.07 µM (inactive); in [9], 16.9 µM (inactive); in assay [10], 16.5 µM (inactive); in [11], 18.5 µM (inactive); in assay [12], 5.12 µM (inactive). Besides, the GI50 in assay [13] is 21.2 µM (inactive); in [14], 14.8 µM (inactive); in [15], 14.9 µM (inactive); in assay [16], 16.3 µM (inactive); in assay [20], 10.1 µM (inactive); in [18], 15.7 µM (inactive). Also, the GI50 in assay [19] is 9.38 µM (inactive).
In the case of `OCCCSc1ccccc1SCCCO`, the GI50 in assay [1], in [2], in assay [3], in assay [4], in assay [5] and in [6] was > 100 µM (inactive) throughout. The GI50 in assay [7], in assay [8], in [10], in [11], in assay [12] and in assay [13] was > 100 µM (inactive) in each case. The GI50 in assay [14], in [15], in assay [20], in [18] and in assay [19] was > 100 µM (inactive) throughout.
Regarding `CC(C)(NC(=O)OCc1ccccc1)C(=O)NC(Cc1ccccc1)C(=O)O` (configuration not stated) (Cbz-[Aib]-[ξF]-OH), the GI50 in assay [1], in assay [2], in assay [3], in assay [5], in [6] and in assay [7] was > 100 µM (inactive) in each case. The GI50 in assay [8], in [9], in assay [11], in assay [12], in [13] and in [14] was > 100 µM (inactive) throughout. In addition, the GI50 in assay [15], in assay [17], in assay [18] and in assay [19] was > 100 µM (inactive) each time.

Values taken from ChEMBL document CHEMBL1201862, “PubChem BioAssay data set” (2004).
